Experiments:
[1] = test system: SNU-398 cells; assay: Subcutaneous transplantation of peptide pre-treated SNU-398 cells into NOD/SCID mice; format: in vivo; conditions: for subcutaneous tumor volume / size: cells treated in vitro with 20 μM peptide
Method: Cell viability was determined 72 hours after peptide treatments. Absorbance at 490 nm is directly correlated to cell viability. Wild type functional SALL4 peptide (wt), mutant non-functional SALL4 peptide (Mut.), trichostatin A (TSA), scrambled control peptide (Scr.), wild type peptide+PTEN inhibitor SF1670 (wt+Inh.) were given to the cells at the indicated concentration. PTEN inhibitor concentration was 400 nM. (31C, 31D) Western blot analyses of the effects of peptides on PTEN, AKT, and pAKT expression on SNU-398 (31C) and SNU-387 (31D) cells 72 hours following peptide treatments. 20 μM of wt or Scr. peptide or 100 nM of TSA was used. PTEN inhibitor concentration was 400 nM. (31E) Representative images show NOD/SCID mice transplanted with Scr peptide- and wt peptide-treated SNU-398 cells (left) and the dissected subcutaneous tumors (right). Arrow indicates subcutaneous tumor. (31F) Growth curve of subcutaneous tumors (left panel) and tumor weight of tumors dissected at day 26 post-transplantation (right panel). Results are mean±s.d. n=5; * P<0.05. (31G) Representative images show NOD/SCID mice transplanted with 3 million SNU-398 cells at the left flank and treated intraperitoneally for five consecutive days with 56 mg/kg body weight TAT-Mut. peptide or 60 mg/kg body weight wt peptide (top panel) and the dissected subcutaneous tumors (bottom). (31H) Tumor weight of tumors dissected at day 18 post-transplantation and post-treatment of mice treated intraperitoneally with TAT fusion peptides as described in 5 g. Results are mean±s.d. n=5; * P<0.05.
To test the therapeutic effect of this peptide in vivo, SNU-398 cells were subjected to in vitro treatment with 20 μM of wt or Scr. peptide and transplanted the peptide-treated cells subcutaneously into the flanks of NOD/SCID mice.

[2] = test system: primary human AML cells; assay: Xenotransplantation of peptide-treated primary human AML cells into NSG mice; format: in vivo; conditions: 11 weeks after transplantation, cells treated with Pep-1 plus peptide
Method: FIGS. 12A-12F: Treatment of SALL4 peptide in primary human AML cells induces reduced cell viability in culture and impaired leukemic engraftment in vivo. (12A) Wild type peptide treatment reduces cell viability of human AML cells in culture, and this effect can be reversed in part by the PTEN inhibitor SF1670. 1×10^6 AML cells were treated with nothing (None), Pep-1 alone (Mock), or 20 μM wild type (wt), or scrambled peptide (scr), or wt peptide with 400 nM PTEN inhibitor SF1670 (wt+inh) or with 100 nM TSA for 48 hours, as described in the Methods. Cell viability of untreated primary AML cells is set as 100. […] Percentage of human CD45+ cells engrafted in BM, spleen (SP) and peripheral blood (PB) was determined by flow cytometry. […]
NSG (NOD.Cg-Prkdcscid Il2rgtm 1Wjl/SzJ, The Jackson Laboratory, ME, USA) mice were bred and maintained in the Children's Hospital Boston animal facility. […] The percentage of human CD45+ cells was calculated as follows: % human CD45+ cells=No. human CD45+ cells/(No. human CD45+ cells+No. mouse CD45+ cells)×100. […]
Subsequently tested was the ability of peptide treatment to inhibit the development of AML in vivo utilizing xenografts. […] In addition, the engraftment of human CD45+ cells was evaluated by flow cytometry (FIG. 12E). […]

Row | Substance | subcutaneous tumor volume / size [1] | average engraftment of human CD45+ cells in bone marrow [2] | tumor burden (weight post-dissection) ([1]; day 26)
1 | Scr peptide: same 12 amino acids as the wt peptide, but in a scrambled sequence; negative control (SRMRQKIHPKIQ) [reference compound] | grew into larger subcutaneous tumors | greater than 74% | –
2 | H-MSRRKQAKPQHI-OH [wt peptide, MSRRKQAKPQHI] | significantly reduced | 0.5% | the tumor load was reduced
